Some results are limits rather than exact numbers.

As a reminder, the IC50 is the midpoint of a concentration-inhibition curve. As usually defined, the IC90 is the point of the concentration-response curve where the effect stands at 90%.

The test system of this assay is Plasmodium berghei. The assay is described as follows: Luciferase/luciferin-expressing antifolate-resistant parasites were used to infect a culture of HepG2 cells that were pre-incubated with compounds. Infected hepatocytes emit light due to the luciferase reaction. Assay results are presented as the percent inhibition of light emission compared to control. […]. The class given is functional. As to conditions: sporozoite; for IC90: read-out: LUCIFERASE INFECTION ASSAY - IC90.

[1] abbreviates: read-out: LUCIFERASE INFECTION ASSAY - IC50.

With `CN(C)c1ccc(Nc2cc(-c3cccc4ccccc34)ncn2)cc1`, the IC90 is 6.64 µM. Also, the IC50 (HEPG2TOX_HILL_SLOPE 1.74, HEPG2TOX_R_SQUARED 0.777, PBLUC_HILL_SLOPE 1.75, PBLUC_R_SQUARED 0.668, read-out: LUCIFERASE INFECTION ASSAY - IC50) was found to be 1.9 µM.

`COc1ccc(C2CC(c3ccccc3)=NN2C(=O)CSc2ncnc3ccccc23)cc1` (configuration not stated): the IC90 was over 10 µM. Further, the IC50 under setting [1] was over 10 µM.

In the case of `CC(C)c1ccc(OCC(=O)Nc2ccccc2C(F)(F)F)cc1`, the IC90 was over 9.78 µM. Besides, the IC50 under setting [1] is over 9.78 µM.

As for `CC1(C(=O)NC(=S)NNc2nc3ccccc3[nH]2)CC1(Cl)Cl` (configuration not stated), the IC90 is over 10 µM. Besides, the IC50 (HEPG2TOX_HILL_SLOPE 1.8, HEPG2TOX_R_SQUARED 0.951, read-out: LUCIFERASE INFECTION ASSAY - IC50) is over 10 µM.

On to `OC(CNC1CCN(Cc2ccccc2)CC1)COc1ccc(OC(F)(F)F)cc1` (configuration not stated), for which the IC90 is over 7.77 µM. For the same molecule, the IC50 (PBLUC_HILL_SLOPE 0.955, PBLUC_R_SQUARED 0.217, read-out: LUCIFERASE INFECTION ASSAY - IC50) was over 7.77 µM.

`O=C(CC1CCCC1)N1CCc2nc(NCc3cccc(Oc4ccccc4)c3)ncc2C1`: the IC90 was over 7.46 µM. For the same molecule, the IC50 (HEPG2TOX_HILL_SLOPE 6.79, HEPG2TOX_R_SQUARED 0.796, PBLUC_HILL_SLOPE 75.4, PBLUC_R_SQUARED 0.123, read-out: LUCIFERASE INFECTION ASSAY - IC50) worked out at 7.45 µM.

For `CCc1c(C)nc2c(-c3ccccc3)c(C)nn2c1Nc1ccc(NC(C)=O)cc1`, the IC90 was over 8.26 µM. Moreover, the IC50 (PBLUC_HILL_SLOPE 3.43, PBLUC_R_SQUARED 0.461, read-out: LUCIFERASE INFECTION ASSAY - IC50) turned out to be 5.52 µM.

Take `CC(C)c1ccc(NC(=O)[C@@H]2Cc3ccccc3CN2C(=O)OC(C)(C)C)cc1`: the IC90 is over 8.36 µM. Also, the IC50 (PBLUC_HILL_SLOPE 2.17, PBLUC_R_SQUARED 0.544, read-out: LUCIFERASE INFECTION ASSAY - IC50) is 3.19 µM.

In the case of `N#Cc1cc(C(=O)c2ccc([N+](=O)[O-])cc2)c2nc3ccccc3n2c1N`, the 90% effect concentration (IC90) was over 10 µM. Also, the IC50 (HEPG2TOX_HILL_SLOPE 7.9, HEPG2TOX_R_SQUARED 0.276, PBLUC_HILL_SLOPE 1.76, PBLUC_R_SQUARED 0.097, read-out: LUCIFERASE INFECTION ASSAY - IC50) is 9.24 µM.

On to `COc1cc(-c2cc(C(=O)N/N=C3/C(=O)N(CC(C)C)c4ccccc43)c3ccccc3n2)cc(OC)c1OC`, for which the IC90 is over 10 µM. For the same molecule, the IC50 under setting [1] is over 10 µM.

With `CC(C)(C)c1cc(NS(=O)(=O)c2cc(C(F)(F)F)cc(C(F)(F)F)c2)c(C#N)s1`, the IC90 stood at 2.55 µM. The IC50 (HEPG2TOX_HILL_SLOPE 3.04, HEPG2TOX_R_SQUARED 0.973, PBLUC_HILL_SLOPE 26.7, PBLUC_R_SQUARED 0.729, read-out: LUCIFERASE INFECTION ASSAY - IC50) stood at 2.35 µM.

For the molecule `O=C(Nc1ccc(F)cc1)c1ccc(CN2CCc3ccccc3C2)cc1`, the IC90 is over 9.16 µM. Further, the half-inhibitory concentration (IC50) under setting [1] is over 9.16 µM.

Regarding `CC(C)(C)Nc1ccn2nc(-c3ccco3)cc2n1`, the 90% effect concentration (IC90) is over 12.9 µM. Further, under “PBLUC_HILL_SLOPE 2.89, PBLUC_R_SQUARED 0.538, read-out: LUCIFERASE INFECTION ASSAY - IC50”, the 50% inhibitory concentration (IC50) is 8.49 µM.

Take `CN(CC(=O)Nc1ccc(Cl)c(S(=O)(=O)N2CCOCC2)c1)C(=O)/C=C/c1cccs1`: the IC90 is over 10 µM. The IC50 (HEPG2TOX_HILL_SLOPE 0.594, HEPG2TOX_R_SQUARED 0.62, read-out: LUCIFERASE INFECTION ASSAY - IC50) was over 10 µM.

In the case of `O=C(Cc1coc2ccc3ccccc3c12)Nc1cc(Cl)ccc1N1CCOCC1`, the IC90 was over 10 µM. In addition, for the setting “FFLUC_HILL_SLOPE 11.6, FFLUC_R_SQUARED 0.426, read-out: LUCIFERASE INFECTION ASSAY - IC50”, the concentration for half-maximal inhibition (IC50) was over 10 µM.

For `O=C(Nc1ccc2oc(=O)[nH]c2c1)c1cnn(-c2ccc(Cl)cc2)c1`, the IC90 was over 10 µM. In addition, under setting [1], the IC50 is over 10 µM.

As to `CCNc1ccc(C(=O)OCC)cc1NC(=O)c1cccc(N(C)C)c1`, the IC90 turned out to be 2.65 µM. Besides, under “HEPG2TOX_HILL_SLOPE 1.36, HEPG2TOX_R_SQUARED 0.981, PBLUC_HILL_SLOPE 2.44, PBLUC_R_SQUARED 0.636, read-out: LUCIFERASE INFECTION ASSAY - IC50”, the IC50 was determined as 1.08 µM.

Turning to `Cc1ccc(NC(=S)Nc2ccc(Cl)cc2)cc1F`, the IC90 is over 11.2 µM. Also, the IC50 under setting [1] is over 11.2 µM.

Consider `CCCc1ccc(-c2csc(NC(=O)CC(NC(=O)c3ccccc3Cl)c3ccccc3)n2)cc1` (configuration not stated), for which the 90% effect concentration (IC90) is over 10 µM. Further, the IC50 (FFLUC_HILL_SLOPE 390, FFLUC_R_SQUARED 0.412, read-out: LUCIFERASE INFECTION ASSAY - IC50) is over 10 µM.

`O=C(Nc1cccc(C(F)(F)F)c1)Nc1ccc2nc(Cc3ccccc3)nn2c1`: the IC90 is 3.8 µM. Besides, the IC50 (HEPG2TOX_HILL_SLOPE 10.6, HEPG2TOX_R_SQUARED 0.963, PBLUC_HILL_SLOPE 15.5, PBLUC_R_SQUARED 0.643, read-out: LUCIFERASE INFECTION ASSAY - IC50) came out at 3.3 µM.

As to `CCOC(=O)c1c(C)oc2c1cc(OS(=O)(=O)c1ccc(NC(C)=O)cc1)c1ccccc12`, the IC90 amounted to 9.89 µM. Besides, the IC50 (HEPG2TOX_HILL_SLOPE 2.44, HEPG2TOX_R_SQUARED 0.99, PBLUC_HILL_SLOPE 3.26, PBLUC_R_SQUARED 0.643, read-out: LUCIFERASE INFECTION ASSAY - IC50) turned out to be 5.05 µM.

On to `COC(=O)c1sccc1NC(=O)N(C)Cc1ccc(C)cc1C`, for which the IC90 is over 10 µM. The half-inhibitory concentration (IC50) (PBLUC_HILL_SLOPE 2.81, PBLUC_R_SQUARED 0.305, read-out: LUCIFERASE INFECTION ASSAY - IC50) amounted to 6.58 µM.

Regarding `Cc1cc(C)cc(NC(=O)C(Sc2nc(=O)cc(N)[nH]2)c2ccccc2)c1` (configuration not stated), the concentration for an effect of 90% (IC90) was over 10 µM. Under setting [1], the IC50 was over 10 µM.

Take `Cc1cc(O)c(/C=N/Nc2ncc(C(F)(F)F)cc2Cl)c(=O)o1`: the IC90 is over 9.49 µM. Besides, the IC50 (HEPG2TOX_HILL_SLOPE 2.38, HEPG2TOX_R_SQUARED 0.982, PBLUC_HILL_SLOPE 7.99, PBLUC_R_SQUARED 0.344, read-out: LUCIFERASE INFECTION ASSAY - IC50) was determined as 7.73 µM.

Take `COc1ccc(-c2nccc3n[nH]c(-c4cccc(C(F)(F)F)c4)c23)cc1OC`: the IC90 was over 10 µM. Moreover, the IC50 (PBLUC_HILL_SLOPE 15.9, PBLUC_R_SQUARED 0.0621, read-out: LUCIFERASE INFECTION ASSAY - IC50) was found to be 9.75 µM.

On to `COCCCN1C(=O)N(Cc2ccccc2)C(=O)C12CCN(Cc1cccc(C(F)(F)F)c1)CC2`, for which the IC90 is over 6.74 µM. Moreover, under “HEPG2TOX_HILL_SLOPE 5.47, HEPG2TOX_R_SQUARED 0.316, read-out: LUCIFERASE INFECTION ASSAY - IC50”, the IC50 is over 6.74 µM.

(Values after ChEMBL document CHEMBL4483862, “Open-source discovery of chemical leads for next-generation chemoprotective antimalarials” (2018).)
